From PMC3701070 (PLoS ONE, 2013)

Experiments:
[1] = test system: pMEK and pERK in HCT-116 (wild-type BRAF, mutant KRAS) cells; assay: Western blot, paradoxical MAPK activation in HCT-116 cells; assay type: cell-based, human; settings: 100 or 300 nM dabrafenib, co-treatment with 50 nM or 5 nM trametinib, 1 h
Procedure: Cells were lysed in 25 mM Tris-HCl pH 7.5, 2 mM EDTA, 2 mM EGTA, 1% Triton X-100, 0.1% SDS, 50 mM sodium-β-glycerophosphate, 2 mM Na3VO4, 12.5 mM sodium pyrophosphate, 2× Complete EDTA-free mini protease inhibitor tablets (Roche), 2× phosphatase inhibitor cocktails I and II (Sigma-Aldrich). Protein concentrations were determined by Bio-Rad DC™ or dye-based protein assays and lysates were resolved by SDS-PAGE (Invitrogen NuPAGE®) and transferred to PVDF membranes. Membranes were blocked with Odyssey® (LI-COR Biosciences) blocking buffer and incubated with primary antibodies overnight at 4°C. Blots were washed with PBS containing 0.1% Tween-20, incubated with secondary antibodies, and washed again prior to signal detection on a LI-COR Odyssey® reader.
Lysates were immunoblotted for total ERK (tERK) and dual-phosphorylated ERK (ppERK) (B).

HCT-116 = test system: HCT-116; set-up: method as in PMID 21245089; settings: HCT-116 cells; read-out: gIC50; cited from earlier work

Q: For `CC(=O)Nc1cccc(-n2c(=O)n(C3CC3)c(=O)c3c(Nc4ccc(I)cc4F)n(C)c(=O)c(C)c32)c1` [trametinib, reference compound], which “effect on dabrafenib-induced pERK upregulation” value [1] is on record?
A: abolished

Q: And the IC50 (HCT-116)?
A: 21 nM
